Data as given in patent US20150045610A1, “METHOD OF MODIFYING SPERMATOGENESIS, SPERMIOGENESIS AND/OR FERTILITY IN MAMMALS” (Monell Chemical Senses Center, priority 2012, published 2015).
Values belong to the molecule of their own block, whether it stands above or below them.

Legend:
humanized mhT1R3 = target: T1, humanized mhT1R3 (Homo sapiens, UniProt Q7RTX0, A109T/A120V/A176D/A197V/A198V/A228S/A231N/A248T/A280V/A282S/A302S/A412V/A417V/A46T/A537T/C375D/D124S/D249S/D250G/D364H/D419E/D470T/D491G/D88A/DEL352-352/DEL488-489/E172D/E199T/E203N/E217D/E356N/E45S/E481Q/E505D/E525K/E545Q/F540P/F555L/G168S/G205S/G311T/G314N/G355L/G360D/G414H/G438R/G439D/G463S/G50T/G542N/H261R/H278R/H281Y/H332P/I485M/I536F/INS376MLQNLSSG/K32Q/K339E/K422L/K494V/K86G/L173R/L245Q/L272V/L29F/L354S/L385Q/L433M/L458M/L483S/L71F/L74M/M151L/M315I/M318V/M31A/N285S/N386L/N532H/N68L/P112S/P246H/P335S/P416H/P420H/P441T/P60I/Q221E/Q257L/Q317R/Q330L/Q336H/Q359L/Q372R/Q418S/Q504K/Q531K/R123Q/R247D/R252Q/R291G/R30K/R357A/R443Q/R467V/R473T/R479Q/R482Q/R486Y/R498Q/R52N/R550K/R553A/R556P/R560K/R56Q/S251Q/S267K/S289H/S290H/S392A/S446A/S447E/S464P/S477T/S490P/S53Q/S559P/S58N/S67P/T195Q/T346A/T377L/T390I/T434S/T480L/T63N/V152I/V277A/V366M/V36I/V381L/V393T/V437A/V465T/V61P/W72L); test: sweet taste preference of transgenic mice expressing humanized T1R3; type: in vivo, mouse
T1 construct: the extracellular domain is of mouse origin and the transmembrane and intracellular domains of human origin; mouse T1R3 extracellular domain (fusion partner replacing the human extracellular domain); expressed in transfected cells; host or cells: transgenic mice (Line 7, 9, 7c) on T1R3-null background; transgene under 13 kb T1R3 promoter, followed by IRES-eGFP
T1 sequence (Q7RTX0 with tags, fused parts or gaps L29F/R30K/M31A/K32Q/V36I/E45S/A46T/G50T/R52N/S53Q/R56Q/S58N/P60I/V61P/T63N/S67P/N68L/L71F/W72L/L74M/K86G/D88A/A109T/P112S/A120V/R123Q/D124S/M151L/V152I/G168S/E172D/L173R/A176D/T195Q/A197V/A198V/E199T/E203N/G205S/E217D/Q221E/A228S/A231N/L245Q/P246H/R247D/A248T/D249S/D250G/S251Q/R252Q/Q257L/H261R/S267K/L272V/V277A/H278R/A280V/H281Y/A282S/N285S/S289H/S290H/R291G/A302S/G311T/G314N/M315I/Q317R/M318V/Q330L/H332P/P335S/Q336H/K339E/T346A/DEL352-352/L354S/G355L/E356N/R357A/Q359L/G360D/D364H/V366M/Q372R/C375D/INS376MLQNLSSG/T377L/V381L/L385Q/N386L/T390I/S392A/V393T/A412V/G414H/P416H/A417V/Q418S/D419E/P420H/K422L/L433M/T434S/V437A/G438R/G439D/P441T/R443Q/S446A/S447E/L458M/G463S/S464P/V465T/R467V/D470T/R473T/S477T/R479Q/T480L/E481Q/R482Q/L483S/I485M/R486Y/DEL488-489/S490P/D491G/K494V/R498Q/Q504K/E505D/E525K/Q531K/N532H/I536F/A537T/F540P/G542N/E545Q/R550K/R553A/F555L/R556P/S559P/R560K limits assumed): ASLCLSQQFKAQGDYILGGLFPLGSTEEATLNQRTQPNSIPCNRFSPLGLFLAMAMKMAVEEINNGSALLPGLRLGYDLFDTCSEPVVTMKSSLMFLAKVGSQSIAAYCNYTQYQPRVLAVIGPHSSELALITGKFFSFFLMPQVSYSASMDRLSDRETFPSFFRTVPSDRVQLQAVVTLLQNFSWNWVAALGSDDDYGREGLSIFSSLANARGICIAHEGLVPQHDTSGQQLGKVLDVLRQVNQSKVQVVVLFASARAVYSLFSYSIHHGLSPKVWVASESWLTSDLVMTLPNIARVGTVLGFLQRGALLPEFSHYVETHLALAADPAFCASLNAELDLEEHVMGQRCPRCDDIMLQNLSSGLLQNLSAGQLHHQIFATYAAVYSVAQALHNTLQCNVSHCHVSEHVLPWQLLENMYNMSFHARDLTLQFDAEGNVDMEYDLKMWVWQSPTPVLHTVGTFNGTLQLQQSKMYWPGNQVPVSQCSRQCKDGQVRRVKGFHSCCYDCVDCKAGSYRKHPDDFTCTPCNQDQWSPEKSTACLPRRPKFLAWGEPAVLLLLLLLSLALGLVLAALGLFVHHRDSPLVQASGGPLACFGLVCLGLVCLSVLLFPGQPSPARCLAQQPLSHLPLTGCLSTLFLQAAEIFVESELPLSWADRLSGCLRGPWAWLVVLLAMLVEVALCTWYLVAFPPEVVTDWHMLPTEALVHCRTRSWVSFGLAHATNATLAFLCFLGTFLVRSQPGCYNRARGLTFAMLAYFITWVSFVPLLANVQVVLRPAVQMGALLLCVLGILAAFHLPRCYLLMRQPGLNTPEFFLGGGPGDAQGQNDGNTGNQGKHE
T1 sequence (Q925I4 20-843 partner): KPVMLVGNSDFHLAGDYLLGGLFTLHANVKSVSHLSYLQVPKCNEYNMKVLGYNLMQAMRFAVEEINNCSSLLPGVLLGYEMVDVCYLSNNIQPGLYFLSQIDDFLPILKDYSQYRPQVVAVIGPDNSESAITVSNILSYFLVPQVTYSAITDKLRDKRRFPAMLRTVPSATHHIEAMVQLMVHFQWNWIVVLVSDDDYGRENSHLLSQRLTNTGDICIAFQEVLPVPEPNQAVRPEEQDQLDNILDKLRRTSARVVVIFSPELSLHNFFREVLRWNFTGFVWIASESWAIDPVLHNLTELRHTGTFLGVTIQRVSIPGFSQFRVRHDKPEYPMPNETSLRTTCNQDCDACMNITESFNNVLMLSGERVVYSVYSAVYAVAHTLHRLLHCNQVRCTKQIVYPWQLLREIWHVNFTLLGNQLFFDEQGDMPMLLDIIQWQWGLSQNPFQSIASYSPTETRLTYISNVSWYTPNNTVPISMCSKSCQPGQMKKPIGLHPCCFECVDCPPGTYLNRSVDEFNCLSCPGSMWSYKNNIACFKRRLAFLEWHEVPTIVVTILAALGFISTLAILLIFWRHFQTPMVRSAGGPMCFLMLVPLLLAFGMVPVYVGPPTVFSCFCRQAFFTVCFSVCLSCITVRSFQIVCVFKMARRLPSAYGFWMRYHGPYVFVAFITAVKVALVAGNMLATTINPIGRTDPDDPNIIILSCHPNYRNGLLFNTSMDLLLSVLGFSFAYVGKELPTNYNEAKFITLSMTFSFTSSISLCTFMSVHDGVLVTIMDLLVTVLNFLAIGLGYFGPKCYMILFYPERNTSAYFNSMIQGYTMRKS
Procedure: We used the chimeric mhT1R3 receptor to produce conventional transgenic animals. The DNA construct was injected into a genetically engineered mouse line that lacks endogenous T1R3 (T1R3KO or T1R3-null). […] We call these mice Line7.
For further crosses, we used the line 7 that has fewer copies of the transgene.
Such compounds may be produced normally in organs (e.g. in testis) or chemically synthesized.

human T1R3 receptor = target: T2, human T1R3 receptor (Homo sapiens, UniProt Q7RTX0); details: cited from earlier work
T2 construct: expressed in transfected cells
T2 sequence (Q7RTX0 21-852): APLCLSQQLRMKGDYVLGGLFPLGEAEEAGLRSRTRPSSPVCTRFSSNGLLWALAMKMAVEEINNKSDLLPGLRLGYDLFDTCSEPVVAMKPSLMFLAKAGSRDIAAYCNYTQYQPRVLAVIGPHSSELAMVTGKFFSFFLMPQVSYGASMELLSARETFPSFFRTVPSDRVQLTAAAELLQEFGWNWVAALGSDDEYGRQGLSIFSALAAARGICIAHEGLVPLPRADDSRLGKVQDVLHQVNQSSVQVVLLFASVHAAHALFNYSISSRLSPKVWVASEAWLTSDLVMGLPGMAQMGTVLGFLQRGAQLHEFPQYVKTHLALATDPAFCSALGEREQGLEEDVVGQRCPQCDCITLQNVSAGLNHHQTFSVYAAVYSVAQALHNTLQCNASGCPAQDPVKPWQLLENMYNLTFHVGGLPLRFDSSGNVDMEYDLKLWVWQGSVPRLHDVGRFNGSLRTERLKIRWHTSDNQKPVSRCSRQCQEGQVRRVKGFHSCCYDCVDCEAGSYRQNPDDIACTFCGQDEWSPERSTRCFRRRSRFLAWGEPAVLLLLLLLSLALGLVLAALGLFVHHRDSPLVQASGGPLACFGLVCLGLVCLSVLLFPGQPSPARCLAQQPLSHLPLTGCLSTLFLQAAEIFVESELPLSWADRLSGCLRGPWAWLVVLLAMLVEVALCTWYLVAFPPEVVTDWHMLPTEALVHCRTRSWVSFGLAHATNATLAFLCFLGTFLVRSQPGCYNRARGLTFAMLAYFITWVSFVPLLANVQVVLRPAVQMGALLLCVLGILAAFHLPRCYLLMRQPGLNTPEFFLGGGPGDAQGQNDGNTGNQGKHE
T2 sequence (Q8TE23 20-839 partner): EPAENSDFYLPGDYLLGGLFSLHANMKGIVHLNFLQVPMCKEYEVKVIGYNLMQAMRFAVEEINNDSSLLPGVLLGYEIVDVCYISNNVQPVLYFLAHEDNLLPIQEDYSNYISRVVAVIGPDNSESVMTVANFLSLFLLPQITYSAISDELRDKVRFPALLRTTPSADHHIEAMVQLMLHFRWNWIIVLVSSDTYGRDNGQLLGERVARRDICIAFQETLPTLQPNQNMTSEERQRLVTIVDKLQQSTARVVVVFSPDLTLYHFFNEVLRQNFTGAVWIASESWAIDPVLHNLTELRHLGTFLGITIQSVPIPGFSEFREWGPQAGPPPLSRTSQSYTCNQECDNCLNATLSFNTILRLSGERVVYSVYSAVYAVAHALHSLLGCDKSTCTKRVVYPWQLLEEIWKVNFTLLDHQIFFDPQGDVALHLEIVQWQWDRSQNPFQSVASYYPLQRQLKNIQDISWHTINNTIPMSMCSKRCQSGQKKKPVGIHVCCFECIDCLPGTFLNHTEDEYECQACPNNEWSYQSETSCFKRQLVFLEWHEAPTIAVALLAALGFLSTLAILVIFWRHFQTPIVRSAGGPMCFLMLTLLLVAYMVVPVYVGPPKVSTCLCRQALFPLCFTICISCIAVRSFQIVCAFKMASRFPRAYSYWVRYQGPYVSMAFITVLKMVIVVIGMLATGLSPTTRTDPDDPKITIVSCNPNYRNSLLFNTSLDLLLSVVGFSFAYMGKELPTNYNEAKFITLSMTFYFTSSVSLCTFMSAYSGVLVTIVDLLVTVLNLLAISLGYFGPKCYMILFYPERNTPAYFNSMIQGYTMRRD

PDE = PDE pharmacological block with theophylline in drinking water
[1] = lines 7, 9, 7c expressing humanized receptor

SMILES: CC(Oc1ccc(Cl)cc1Cl)C(=O)O (centres unmarked) [2,4-DP, 2-(2,4-dichlorophenoxyl) propionic acid]
sweet preference of Line 7 mice (humanized mhT1R3; 0.2 mM 2,4-DP): blocked
sweet responses of the transgenic animals (humanized mhT1R3; [1]): even more powerful inhibitor

SMILES: CC(C)(Oc1ccc(CCNC(=O)c2ccc(Cl)cc2)cc1)C(=O)O [bezafibric acid]
T1R3 inhibition compared with PPAR-α activation (human T1R3 receptor): comparable to their activation of PPAR-α

preference of transgenic animals for sweetener (humanized mhT1R3; [1]): modest preference
SMILES: OC[C@H]1O[C@H](O[C@]2(CCl)O[C@H](CCl)[C@@H](O)[C@@H]2O)[C@H](O)[C@@H](O)[C@H]1Cl [sucralose]

preference of transgenic animals for sweetener (humanized mhT1R3; [1]): strong preference
SMILES: OC[C@H]1O[C@@](CO)(O[C@H]2O[C@H](CO)[C@@H](O)[C@H](O)[C@H]2O)[C@@H](O)[C@@H]1O [sucrose]

SMILES: Cn1c(=O)c2[nH]cnc2n(C)c1=O [theophylline]
testis pathology (PDE; T1R3-null animals, theophylline, compared with clofibrate-treated animals): similar, although milder, pathology
pathology in testis after single block (PDE; control genotypes, theophylline alone, preliminary): no detectable pathology in testis
adverse effect on health and behavior (PDE; theophylline-treated animals): no obvious adverse effect
